In patent US10829520B2, “Beta-hairpin peptidomimetics” (POLYPHOR AG, priority 2015, dated 2020):
Where a SMILES comes first, the peptide text is derived from it. Bridges are numbered along the chain shown (N, C = ends). Roman numbers before positions name the chains, in order. [ ]: non-standard residue; d: D form. Tle = CC(C)(C)[C@H](N)C(=O)O; dDab = NCC[C@@H](N)C(=O)O; Nle = CCCC[C@H](N)C(=O)O; Orn = NCCC[C@H](N)C(=O)O; Dab = NCC[C@H](N)C(=O)O; Sar = CNCC(=O)O

Columns and labels:
Assay type in all cases: cell-based
[1] = system: Acinetobacter baumannii 872842; conditions: 872842
[2] = system: Acinetobacter baumannii DSM 30008; conditions: DSM 30008
In short: (§1)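 Broth microdilution per CLSI, cation-adjusted MH-II medium, 0.002% (v/v) polysorbate 80 final. Approx. 10^6 CFU/mL inoculum, incubated 35° C for 18-20 h; MIC read as absence of visible growth.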

[3] = system: Escherichia coli 926415; conditions: 926415
[4] = system: Escherichia coli ATCC 25922; conditions: ATCC 25922
In short: as §1

[5] = system: Klebsiella pneumoniae 968733; conditions: 968733
[6] = system: Klebsiella pneumoniae SSI #3010; conditions: SSI #3010
In short: as §1

[7] = system: Pseudomonas aeruginosa ATCC 27853; conditions: ATCC 27853
In short: as §1

[8] = system: human red blood cells (hRBC); experiment: Hemolysis of human red blood cells; conditions: red cells of human, 1 h
In short: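 Peptides at 100 μg/mL were incubated with PBS-washed fresh human erythrocytes (20% v/v, ~0.9×10^9 cells/mL final) for 1 h at 37° C. with shaking. Supernatant OD540 was read after 8-fold dilution; percent hemolysis was expressed relative to the 2.5% Triton X-100 full-lysis control, with PBS/0.001% acetic acid as 0%.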

Compound	Acinetobacter baumannii 872842 MIC [1] [µg/mL]	Acinetobacter baumannii DSM 30008 MIC [2] [µg/mL]	Escherichia coli 926415 MIC [3] [µg/mL]	Escherichia coli ATCC 25922 MIC [4] [µg/mL]	Klebsiella pneumoniae 968733 MIC [5] [µg/mL]	Klebsiella pneumoniae SSI #3010 MIC [6] [µg/mL]	Pseudomonas aeruginosa ATCC 27853 MIC [7] [µg/mL]	Hemolysis at 100 μg/mL ([8]; 100 μg/mL) [%]	Hemolysis at 100 μg/mL [8]; 100 [%]
CNCC(=O)N[C@@H](Cc1c[nH]c2ccccc12)C(=O)N[C@H]1CSSC[C@@H](C(=O)N(C)CC(=O)N[C@H](C(=O)N[C@@H](CCN)C(=O)N[C@@H](CCN)C(=O)N[C@H]2CCNC(=O)[C@H]([C@@H](C)O)NC(=O)[C@H](CCN)NC(=O)[C@H](CCN)NC(=O)[C@H](CC(C)C)NC(=O)[C@@H](CC(C)C)NC(=O)[C@H](CCN)NC2=O)[C@@H](C)O)NC(=O)[C@H](Cc2ccc(O)cc2)NC(=O)[C@H](CO)NC(=O)[C@H](CC(C)C)NC(=O)[C@@H]2CCCN2C(=O)[C@H]2CCCN2C(=O)[C@H](CO)NC(=O)[C@H](C)NC(=O)[C@H](C(C)C)NC1=O [Ex. 184] (H-[Sar]WCVAS[dP]PLSYC[Sar]T[Dab][Dab][Dab][Dab][dL]L[Dab][Dab]T; disulfide 3-12; lactam 17-C)	1	0.5	1	0.5	1	0.5	0.75	<1	
CCCC[C@@H]1NC(=O)[C@@H]2CCCN2C(=O)[C@H]2CCCN2C(=O)[C@H](CO)NC(=O)[C@H](C)NC(=O)[C@H](C(C)(C)C)NC(=O)[C@H](CCN)NC(=O)[C@H](Cc2c[nH]c3ccccc23)NC(=O)[C@H](CCN)NC(=O)[C@H](CCC(=O)N[C@@H](CCN)C(=O)N[C@H]2CCNC(=O)[C@H]([C@@H](C)O)NC(=O)[C@H](CCN)NC(=O)[C@H](CCN)NC(=O)[C@H](CC(C)C)NC(=O)[C@@H](Cc3ccccc3)NC(=O)[C@H](CCN)NC2=O)NC(=O)[C@H](CCCN)NC(=O)[C@H](CCN)NC(=O)[C@H](Cc2ccc(O)cc2)NC(=O)[C@H](CO)NC1=O [Ex. 3] (I: cyclo([Nle]SY[Dab][Orn]E[Dab]W[Dab][Tle]AS[dP]P) / II: [Dab][Dab][Dab][dF]L[Dab][Dab]T; amide I:6-II:N; lactam II:2-II:C)	2	1	0.25	0.5	1	0.5	0.25		<1
CCCC[C@@H]1NC(=O)[C@@H]2CCCN2C(=O)[C@H]2CCCN2C(=O)[C@H](CO)NC(=O)[C@H](C)NC(=O)[C@H](C(C)(C)C)NC(=O)[C@H](CCN)NC(=O)[C@H](Cc2c[nH]c3ccccc23)NC(=O)[C@@H](N)CCC(=O)NCC[C@@H](C(N)=O)NC(=O)[C@H](CCC(=O)N[C@H](CCN)C(=O)N[C@H]2CCNC(=O)[C@H]([C@@H](C)O)NC(=O)[C@H](CCN)NC(=O)[C@H](CCN)NC(=O)[C@H](CC(C)C)NC(=O)[C@@H](Cc3ccccc3)NC(=O)[C@H](CCN)NC2=O)NC(=O)[C@H](CCN)NC(=O)[C@H](Cc2ccc(O)cc2)NC(=O)[C@H](CO)NC1=O [Ex. 193] (I: H-EW[Dab][Tle]AS[dP]P[Nle]SY[Dab]E[Dab]-NH2 / II: [dDab][Dab][Dab][dF]L[Dab][Dab]T; lactam I:1-I:14, II:2-II:C; amide I:13-II:N)	1	1	0.5	0.5	1	0.5	2		<1
